Patent publication US20230322933A1, “MODEL FOR PREDICTION OF TOLERABILITY ISSUES IN CONNECTION WITH INTRAVENOUS ADMINISTRATION OF THERAPEUTIC ANTIBODIES” (BIOINVENT INTERNATIONAL AB, priority 2020, published 2023)
Where “and” joins values, the source holds several entries; their conditions need not be identical. Equal entries are not always repeated. Entries after “also recorded” stand apart in the source; their conditions may differ. Each block holds one molecule with its values, some of them ahead of it.

Columns and labels:
mouse CD32B (mouse) = mouse CD32B (mouse) (UniProt P08101); experiment: receptor saturation at 10 µg/ml AT-130-2; separate experiments not shown in the filing
mouse CD32B (mouse), sequence (P08101 30-207 limits assumed): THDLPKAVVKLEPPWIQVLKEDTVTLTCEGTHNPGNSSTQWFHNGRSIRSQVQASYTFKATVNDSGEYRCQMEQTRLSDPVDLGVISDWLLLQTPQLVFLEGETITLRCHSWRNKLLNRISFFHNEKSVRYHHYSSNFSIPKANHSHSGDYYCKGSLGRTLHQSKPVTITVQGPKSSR

wildtype C57/BL6 mice [1] = experiment: Platelet counts in fresh mouse blood (Vetscan) after antibody injection; assay type: in vivo; settings: pre i.v. injection of 10 mg/kg AT-130-2 IgG2a
Experimental: Blood samples were collected from vena saphena 20 min post injection of bulk dose of anti-CD32B for instant blood count analysis. For liver enzyme and cytokine analysis, the mice were bled from the aorta under isoflurane anesthesia just prior to sacrifice. Samples for liver enzymes and cytokines were collected 1 h and respectively 3 h after bulk dose.
Platelet counts were analyzed in fresh blood using a Vetscan (Vetscan HM5 Abaxis, Triolab).
Blood samples were collected from vena saphena for instant blood count analysis. For serum concentrations of AT130-2, liver enzyme and cytokine analysis, the mice were bled from the aorta under isoflurane anesthesia just prior to sacrifice.
Blood samples were collected from vena saphena for instant blood count analysis.

wildtype C57/BL6 mice [2] = experiment: Macroscopic IRRs (scoring 0-2) in mice after injection of surrogate antibody, with or without premedication or split-dosing; assay type: in vivo, mouse; design: key to grade of macroscopic symptoms with single premedication: 0: No visible symptoms; 1: Isolation, decreased activity; 2: Isolation, decreased activity, impaired balance, piloerection, hunching followed by un-natural body posture; settings: for effect of anti-histamine premedication alone on IRRs / macroscopic symptoms: pre i.v. injection of 10 mg/kg AT-130-2 IgG2a; for effect of adding anti-histamine to two doses of corticosteroid: with 40 mg/kg Betamethasone (24 hours and 1 hour) pre i.v. 10 mg/kg AT-130-2 IgG2a, macroscopic symptoms and platelet counts; for inhibition of IRRs by other pre-medications: given i.p. 1 h prior to i.v. AT-130-2 IgG2a bulk dose 200 ug/mouse
Experimental: Six to eight weeks-old (17-20 g) female C57/BL6 and Balb C mice were obtained from Taconic or Janvier. Mice were injected i.v with mouse anti-CD32B AT-130-2 IgG2a either as a bulk dose of 200 ug/mouse or as a split-dose with 8 ug/mouse followed by 200 ug/mouse.
For the corticosteroid treatment, Betapred (betamethasone, VNR: 008938, Alfasigma S.P.A.) was used at 10 mg/kg which is a suboptimal dose in these mouse models.
Split-dosing was initiated 24 h post corticosteroid treatment with 8 ug/mouse of mouse anti-CD32B AT-130-2 IgG2a i.v. followed by a bulk-dose of 200 ug/mouse 20-40 minutes later. In parallel mice were injected with only the bulk-dose.
Mice were monitored post injection with regards to changes in behavior and macroscopic symptoms such as isolation, mobility, and fur condition. Macroscopic IRRs scoring system of 0-2 was set up based on the observations.
Other premedications evaluated were anti-PAF (CV3988, sc-201015, Santa Cruz 20 mg/kg), anti-IL6 (clone 15A7, BE0047, Bioxcell, 10 mg/kg), anti-histamine (Zantac, VNR: 077875, GlaxoSmithKline AB, 5 mg/kg) or a leukotriene-antagonist (131064, Apoex, 4 mg/kg). These premedications were given i.p 1 h prior to injection i.v of mouse anti-CD32B AT-130-2 IgG2a as a bulk dose of 200 ug/mouse.
Six to eight weeks-old (17-20 g) female C57/BL6 mice were obtained from Taconic. Mice were injected either intra-venous (i.v.), […] (i.p.) or sub-cutaneous (s.c.) with mouse anti-CD32B AT-130-2 IgG2a in doses ranging from 1 μg-400 μg/mouse.
For the corticosteroid treatment, Betapred (betamethasone, VNR: 008938, Alfasigma S.P.A.) or Dexamethasone (Cat. No: S1322, batch no: 02, Selleckchem) was used. For the anti-histamine treatment Zyrlex (10 mg/ml, VNR: 523084, MACURE PHARMA ApS), Zantac (25 mg/ml, VNR: 077875, GlaxoSmithKline AB) or Aeurius (0.5 mg/ml, VNR: 097288, Merck Sharp & Dohme BV) was used.
Mice were monitored post injection with regard to changes in behavior and macroscopic symptoms such as isolation, mobility, and fur condition. Macroscopic IRRs scoring system of 0-2 was set up based on the observations: […]
For the corticosteroid treatment, Betapred (betamethasone, VNR: 008938, Alfasigma S.P.A.) or Dexamethasone (Cat. No: S1322, Batch No: 02, Selleckchem) was used.

[3] = system: human subjects with non-hodgkins B-cell lymphoma; experiment: Clinical response in patients treated with BI-1206; assay type: in vivo; settings: after incorporation of the premedication regimen into the clinical protocol
[4] = system: human subjects with non-hodgkins B-cell lymphoma; experiment: Cytokine release in plasma/serum after BI-1206 infusion (MSD); assay type: in vivo; settings: ≥70 mg (70-100 mg) BI-1206
Experimental: For cytokine concentrations, frozen plasma samples were thawed and diluted ×2 and x8. Two parallel set of cytokines were analyzed, the proinflammatory assay with IL-6, IL-8, TNF-α, IFN-γ, IL-10, IL-2 and IL-4 (MesoScale Discovery (MSD) #K15049), and the chemokine assay with MIP-113, IL-113, IL-23, IL-12p70, TARC and VEGF (MSD #K15067). The assays followed the manufacturer's protocol as outlined briefly: 50 μL of sample and calibration standard were added to the appropriate MSD plates and incubated. Following washing, 25 μL of SULFO-TAG detection antibody mixture were added to each well of the corresponding plate. The plates were analyzed on a QuickPlex SQ120 Reader instrument (MSD) and cytokine concentration was calculated using the MSD software (Discovery Workbench, 2013; version LSR-4-0-12).

[5] = system: human subjects with non-hodgkins B-cell lymphoma; experiment: ALT/AST in clinical studies with BI-1206; settings: ≥70 mg (70-100 mg) BI-1206
Excerpt: (§1) Platelet counts, ALT concentrations and IRR grading Platelet counts, ALT concentrations and IRR grading were obtained from clinical sites where analyzed and reported according local standard procedures.

[6] = system: human subjects with non-hodgkins B-cell lymphoma; experiment: Platelet counts in clinical studies with BI-1206
Excerpt: as §1

FcγRIIB = molecular target: T1, FcγRIIB (Homo sapiens, UniProt P31994); experiment: FcgRIIb receptor occupancy on peripheral B cells (flow cytometry); assay type: in vivo; settings: 100 mg BI-1206; preliminary data
T1 construct: endogenous in cells; host or cells: peripheral CD19+ B cells in whole blood of human subjects (B-cell NHL / CLL patients)
T1 sequence (P31994 43-310): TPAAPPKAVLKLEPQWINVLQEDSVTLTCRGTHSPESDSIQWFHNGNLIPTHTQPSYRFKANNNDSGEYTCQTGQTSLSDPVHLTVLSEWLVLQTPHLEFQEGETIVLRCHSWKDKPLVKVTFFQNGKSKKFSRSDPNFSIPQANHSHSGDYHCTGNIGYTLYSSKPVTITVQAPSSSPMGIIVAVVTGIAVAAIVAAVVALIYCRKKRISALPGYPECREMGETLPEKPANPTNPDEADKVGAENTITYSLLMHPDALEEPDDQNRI
Experimental: The FcgRIIb receptor occupancy in humans and hFcgRIIb transgenic mice was analyzed using flow cytometry. Whole blood from was incubated with either 005-005 antibody (targeting hFcgRIIb) or anti-hCD32-AF647 antibody. 005-005 binds the same epitope as BI-1206 but with much lower affinity. In the analysis, the Geo Mean of respectively mAb (005-005 and anti-human CD32) was acquired on the CD19+ cell population. Receptor occupancy (RO) was calculated using the following equations: RO (%)=((Total Receptors-Normalized Free Receptors)*100)/Total Receptors. All replicates of 005-005 geo mean of CD19+ cells were then multiplied by the Normalization factor.

peripheral B lymphocytes = experiment: Peripheral B lymphocyte depletion after BI-1206 infusion; assay type: in vivo, human; settings: 100 mg BI-1206; preliminary data
[7] = system: human subjects with non-hodgkins B-cell lymphoma; experiment: Infusion related reactions (IRR grading) in clinical studies with BI-1206
Excerpt: as §1
Part of the data is based on personal communication with individual investigators.

receptor saturation (mouse CD32B (mouse)): 100%
Molecule: AT-130-2 IgG2a (antibody)

Molecule: Clc1ccc2c(c1)CCc1cccnc1C2=C1CCNCC1 [Aeurius]
effect of anti-histamine premedication alone on platelet decrease (wildtype C57/BL6 mice [1]): did not inhibit IRRs or platelet decrease
effect of anti-histamine premedication alone on IRRs / macroscopic symptoms (wildtype C57/BL6 mice [2]; 10 mg/kg): did not inhibit IRRs or platelet decrease
effect of anti-histamine premedication alone on IRRs / macroscopic symptoms (wildtype C57/BL6 mice [2]; listed as Au, 10 mg/kg): The same results were seen
effect of adding anti-histamine to two doses of corticosteroid (wildtype C57/BL6 mice [2]): the protective effect was retained

Molecule: BI-1206: anti-FcγRIIb antibody with light chain SEQ ID No:1 and heavy chain SEQ ID No:2
clinical responses [3]: Both complete and partial responses have been observed
time to normalization of cytokines [4]: ≤ 24 h
subjects with significant ALT and AST increase [5]: 3/14 and 3 out of 16
platelet decrease ([6]; 70 mg BI-1206, subjects 501-001 and 503-002, two doses of dexamethasone): no/low platelet decrease
seriousness and resolution of thrombocytopenia ([6]; 70-100 mg / ≥50 mg BI-1206): The decrease is transient and most episodes have been resolved within a week; also recorded: has not been serious nor associated with bleeding and most episodes resolved within a week
platelets ([6]; ≥50 mg BI-1206): transient decrease in platelets
duration of receptor saturation (FcγRIIB): up to 48 hours
receptor occupancy on peripheral B cells (FcγRIIB): ~100%
peripheral B lymphocytes (peripheral B lymphocytes): transient depletion of peripheral B lymphocytes
time to recovery of peripheral B lymphocytes (peripheral B lymphocytes): approximately 7 days
grade of IRR's ([7]; 30 mg BI-1206, subject 201-003, 10th administration, two doses of dexamethasone): 1
IRRs ([7]; 70 mg BI-1206, subjects 501-001 and 503-002, dexamethasone 12 mg or 4 mg the evening before and 20 mg 30 minutes prior): None of the subjects suffered any IRRs; also recorded: Both subjects did not suffer IRRs
grade of IRRs ([7]; 70 mg BI-1206, subjects 501-001 and 503-002, dexamethasone (20 mg) only 30 minutes prior to infusion): 2-3 grade
severity and frequency of IRRs after implementation of premedication with two doses of corticosteroids ([7]; 70-100 mg BI-1206, study 17-BI-1206-02): Significantly lower frequency and severity of IRRs; also recorded: statistically significant reduced severity and frequency of IRRs
infusion related reactions during BI-1206 infusions ([7]; i.v. administration, human subjects): frequently associated with IRRs; also recorded: Frequent infusion related reactions (IRRs) have been seen

Molecule: C[C@H]1C[C@H]2[C@@H]3CCC4=CC(=O)C=C[C@]4(C)[C@@]3(F)[C@@H](O)C[C@]2(C)[C@@]1(O)C(=O)CO [betamethasone]
grade of macroscopic symptoms with single premedication (wildtype C57/BL6 mice [2]; 40 mg/kg only 24 hours before i.v. 10 mg/kg AT-130-2 IgG2a): 1

Molecule: CC(C)(C)c1ccc(C(O)CCCN2CCC(C(O)(c3ccccc3)c3ccccc3)CC2)cc1 (stereo not drawn) [anti-histamine]
effect of anti-histamine premedication alone on platelet decrease (wildtype C57/BL6 mice [1]): did seem to improve decrease in platelet counts
inhibition of IRRs by other pre-medications (wildtype C57/BL6 mice [2]): None of these pre-medications could inhibit IRRs; also recorded: none of the tested substances (anti-PAF, anti-IL-6, anti-histamine and a leukotrien-antagonist) could prevent the IRRs
effect of anti-histamine premedication alone on IRRs / macroscopic symptoms (wildtype C57/BL6 mice [2]): did not inhibit macroscopic symptoms
effect of adding anti-histamine to two doses of corticosteroid (wildtype C57/BL6 mice [2]): did not affect macroscopic symptoms or platelet counts

Molecule: CCCCCCCCCCCCCCCCCCNC(=O)OCC(COP(=O)([O-])OCC[n+]1ccsc1)OC (stereo not drawn) [anti-PAF]
inhibition of IRRs by other pre-medications (wildtype C57/BL6 mice [2]): None of these pre-medications could inhibit IRRs; also recorded: none of the tested substances (anti-PAF, anti-IL-6, anti-histamine and a leukotrien-antagonist) could prevent the IRRs

Molecule: O=C(O)COCCN1CCN(C(c2ccccc2)c2ccc(Cl)cc2)CC1 (centres unmarked) [Zyrlex]
effect of anti-histamine premedication alone on platelet decrease (wildtype C57/BL6 mice [1]): did not inhibit IRRs or platelet decrease
effect of anti-histamine premedication alone on IRRs / macroscopic symptoms (wildtype C57/BL6 mice [2]; 10 mg/kg): The same results were seen; also recorded: did not inhibit IRRs or platelet decrease
effect of adding anti-histamine to two doses of corticosteroid (wildtype C57/BL6 mice [2]): the protective effect was retained
